Reference: US20230301300A1, “HERBICIDAL COMPOSITIONS” (SYNGENTA CROP PROTECTION AG, priority 2020, published 2023)

Assays:
Format in all cases: in vivo
[1] = system: Abutilon theophrasti (ABUTH); assay: B2 Post-Emergence Efficacy - Test 2; details: 15 days after application, 0-100 scale
Experimental: (§1) Seeds of a variety of test species (see Table B1) were sown in standard soil in pots. After cultivation for 12 days (post-emergence) under controlled conditions in a glasshouse (at 24/18° C. or 20/16° C., at day/night; 16 hours light; 65% humidity), the plants were sprayed with an aqueous spray solution derived from the formulation of the technical active ingredient dissolved in IF50 (see Table B2 for composition) and adjuvant (Genapol X080) was added to the spray solution at a rate of 0.2% v/v.
(§2) After application, the test plants were grown in a glasshouse under controlled conditions (as above) and watered twice daily. Herbicidal activity was evaluated 15 days after application on a 0-100 scale. The results, where 0=no damage to test plant and 100=total kill of test plant are shown below in Tables 8 to 11.

[2] = system: Ipomoea hederacea (IPOHE); assay: B2 Post-Emergence Efficacy - Test 2; details: 15 days after application, 0-100 scale
Experimental: as §1, §2

[3] = system: Hordeum vulgare (HORVW); assay: B2 Post-Emergence Efficacy - Test 2; details: 15 days after application, 0-100 scale
Experimental: as §1, §2

[4] = system: Lolium perenne (LOLPE); assay: B2 Post-Emergence Efficacy - Test 2; details: 15 days after application, 0-100 scale
Experimental: as §1, §2

[5] = system: Veronica persica (VERPE); assay: B2 Post-Emergence Efficacy - Test 2; details: 15 days after application, 0-100 scale
Experimental: as §1, §2

[6] = system: Brassica napus (BRSNN); assay: B2 Post-Emergence Efficacy - Test 2; details: 15 days after application, 0-100 scale
Experimental: as §1, §2

[7] = system: Chenopodium album (CHEAL); assay: B2 Post-Emergence Efficacy - Test 2; details: 15 days after application, 0-100 scale
Experimental: as §1, §2

[8] = system: Beta vulgaris (BEAVA); assay: B2 Post-Emergence Efficacy - Test 2; details: 15 days after application, 0-100 scale
Experimental: as §1, §2

[9] = system: Sinapis arvensis (SINAR); assay: B2 Post-Emergence Efficacy - Test 2; details: 15 days after application, 0-100 scale
Experimental: as §1, §2

[10] = system: Kochia scoparia (KSHSC); assay: B2 Post-Emergence Efficacy - Test 2; details: 15 days after application, 0-100 scale
Experimental: as §1, §2

[11] = system: Triticum aestivum (TRZAW); assay: B2 Post-Emergence Efficacy - Test 2; details: 15 days after application, 0-100 scale
Experimental: as §1, §2

[12] = system: Amaranthus retroflexus (AMARE); assay: B2 Post-Emergence Efficacy - Test 2; details: 15 days after application, 0-100 scale
Experimental: as §1, §2

[13] = system: Stellaria media (STEME); assay: B2 Post-Emergence Efficacy - Test 2; details: 15 days after application, 0-100 scale
Experimental: as §1, §2

[14] = system: Ipomoea hederacea (IPOHE); assay: B1 Post-Emergence Efficacy - Test 1; details: 1000 g/ha, after 13 days, five point scale
Experimental: (§3) Seeds of a variety of test species are sown in standard soil in pots:— Solanum nigrum (SOLNI), Amaranthus retoflexus (AMARE), Setaria faberi (SETFA), Alopecurus myosuroides (ALOMY), Echinochloa crus-galli (ECHCG), Ipomoea hederacea (IPOHE), Lolium perenne (LOLPE). After 8 days cultivation (post-emergence) under controlled conditions in a glasshouse (at 24/16° C., day/night; 14 hours light; 65% humidity), the plants are sprayed with an aqueous spray solution derived from the formulation of the technical active ingredient in acetone/water (50:50) solution containing 0.5% Tween 20 (polyoxyethylene sorbitan monolaurate, CAS RN 9005-64-5). Compounds are applied at 1000 g/ha. The test plants are then grown in a glasshouse under controlled conditions in a glasshouse (at 24/16° C., day/night; 14 hours light; 65% humidity) and watered twice daily. After 13 days, the test is evaluated for the percentage damage caused to the plant. The biological activities are assessed on a five point scale (5=80-100%; 4=60-79%; 3=40-59%; 2=20-39%; 1=0-19%). A blank value in the table is indicative that the compound was not tested on that species.

[15] = system: Setaria faberi (SETFA); assay: B1 Post-Emergence Efficacy - Test 1; details: 1000 g/ha, after 13 days, five point scale
Experimental: as §3

[16] = system: Lolium perenne (LOLPE); assay: B1 Post-Emergence Efficacy - Test 1; details: 1000 g/ha, after 13 days, five point scale
Experimental: as §3

[17] = system: Amaranthus retoflexus (AMARE); assay: B1 Post-Emergence Efficacy - Test 1; details: 1000 g/ha, after 13 days, five point scale
Experimental: as §3

[18] = system: Solanum nigrum (SOLNI); assay: B1 Post-Emergence Efficacy - Test 1; details: 1000 g/ha, after 13 days, five point scale
Experimental: as §3

[19] = system: Echinochloa crus-galli (ECHCG); assay: B1 Post-Emergence Efficacy - Test 1; details: 1000 g/ha, after 13 days, five point scale
Experimental: as §3

Cc1nn(C)c(=O)c(-c2c(F)ccc(Cl)c2CCc2ccccc2C(F)(F)F)c1O [Compound 1.066, 4-[3-chloro-6-fluoro-2-[2-[2-(trifluoromethyl)phenyl]ethyl]phenyl]-5-hydroxy-2,6-dimethyl-pyridazin-3-one]
20: Herbicidal activity ABUTH ([1]; 15 g/Ha) | Herbicidal activity HORVW ([3]; 60 g/Ha) | Herbicidal activity LOLPE ([4]; 30 g/Ha) | Herbicidal activity KCHSC ([10]; 250 g/Ha) | Herbicidal activity KCHSC ([10]; 500 g/Ha)
10: Herbicidal activity HORVW ([3]; 30 g/Ha) | Herbicidal activity LOLPE ([4]; 15 g/Ha) | Herbicidal activity KCHSC ([10]; 125 g/Ha) | Herbicidal activity TRZAW ([11]; 30 g/Ha)
80: Herbicidal activity HORVW ([3]; 250 g/Ha) | Herbicidal activity LOLPE ([4]; 60 g/Ha) | Herbicidal activity VERPE ([5]; 15 g/Ha) | Herbicidal activity BEAVA ([8]; 15 g/Ha) | Herbicidal activity BEAVA ([8]; 30 g/Ha) | Herbicidal activity BEAVA ([8]; 60 g/Ha) | Herbicidal activity BEAVA ([8]; 125 g/Ha) | Herbicidal activity BEAVA ([8]; 250 g/Ha) | Herbicidal activity SINAR ([9]; 60 g/Ha) | Herbicidal activity TRZAW ([11]; 500 g/Ha) | Herbicidal activity STEME ([13]; 15 g/Ha)
50: Herbicidal activity ABUTH ([1]; 30 g/Ha) | Herbicidal activity ABUTH ([1]; 60 g/Ha)
4 (4=60-79%): percentage damage caused to the plant, LOLPE [16]
60: Herbicidal activity SINAR ([9]; 15 g/Ha) | Herbicidal activity SINAR ([9]; 30 g/Ha) | Herbicidal activity TRZAW ([11]; 125 g/Ha) | Herbicidal activity STEME ([13]; 30 g/Ha)
40: Herbicidal activity TRZAW ([11]; 60 g/Ha)
5 (5=80-100%): percentage damage caused to the plant, IPOHE [14] | percentage damage caused to the plant, SETFA [15] | percentage damage caused to the plant, AMARE [17] | percentage damage caused to the plant, SOLNI [18] | percentage damage caused to the plant, ECHCG [19]
70: Herbicidal activity IPOHE ([2]; 15 g/Ha) | Herbicidal activity HORVW ([3]; 125 g/Ha) | Herbicidal activity TRZAW ([11]; 250 g/Ha)
0: Herbicidal activity HORVW ([3]; 15 g/Ha) | Herbicidal activity KCHSC ([10]; 15 g/Ha) | Herbicidal activity KCHSC ([10]; 30 g/Ha) | Herbicidal activity KCHSC ([10]; 60 g/Ha) | Herbicidal activity TRZAW ([11]; 15 g/Ha)
90: Herbicidal activity ABUTH ([1]; 125 g/Ha) | Herbicidal activity ABUTH ([1]; 250 g/Ha) | Herbicidal activity IPOHE ([2]; 30 g/Ha) | Herbicidal activity IPOHE ([2]; 60 g/Ha) | Herbicidal activity HORVW ([3]; 500 g/Ha) | Herbicidal activity LOLPE ([4]; 125 g/Ha) | Herbicidal activity LOLPE ([4]; 250 g/Ha) | Herbicidal activity VERPE ([5]; 30 g/Ha) | Herbicidal activity BRSNN ([6]; 15 g/Ha) | Herbicidal activity BRSNN ([6]; 30 g/Ha) | Herbicidal activity BRSNN ([6]; 60 g/Ha) | Herbicidal activity BRSNN ([6]; 125 g/Ha) | Herbicidal activity BRSNN ([6]; 250 g/Ha) | Herbicidal activity BRSNN ([6]; 500 g/Ha) | Herbicidal activity CHEAL ([7]; 30 g/Ha) | Herbicidal activity CHEAL ([7]; 60 g/Ha) | Herbicidal activity CHEAL ([7]; 125 g/Ha) | Herbicidal activity BEAVA ([8]; 500 g/Ha) | Herbicidal activity SINAR ([9]; 125 g/Ha) | Herbicidal activity SINAR ([9]; 250 g/Ha) | Herbicidal activity SINAR ([9]; 500 g/Ha) | Herbicidal activity AMARE ([12]; 15 g/Ha) | Herbicidal activity AMARE ([12]; 30 g/Ha) | Herbicidal activity AMARE ([12]; 60 g/Ha) | Herbicidal activity STEME ([13]; 60 g/Ha) | Herbicidal activity STEME ([13]; 125 g/Ha) | Herbicidal activity STEME ([13]; 250 g/Ha)
100: Herbicidal activity ABUTH ([1]; 500 g/Ha) | Herbicidal activity IPOHE ([2]; 125 g/Ha) | Herbicidal activity IPOHE ([2]; 250 g/Ha) | Herbicidal activity IPOHE ([2]; 500 g/Ha) | Herbicidal activity LOLPE ([4]; 500 g/Ha) | Herbicidal activity VERPE ([5]; 60 g/Ha) | Herbicidal activity VERPE ([5]; 125 g/Ha) | Herbicidal activity VERPE ([5]; 250 g/Ha) | Herbicidal activity VERPE ([5]; 500 g/Ha) | Herbicidal activity CHEAL ([7]; 250 g/Ha) | Herbicidal activity CHEAL ([7]; 500 g/Ha) | Herbicidal activity AMARE ([12]; 125 g/Ha) | Herbicidal activity AMARE ([12]; 250 g/Ha) | Herbicidal activity AMARE ([12]; 500 g/Ha) | Herbicidal activity STEME ([13]; 500 g/Ha)
